Test results: the NIST ThermoML archive (doi:10.1016/j.jct.2013.10.031)

Assay: wn = mass fraction of the nth substance listed
Conditions: Gas, Burnett expansion method

FCC(F)(F)F [1,1,1,2-tetrafluoroethane] + CCC
Conditions	mass density [kg/m3]
304.25 K, 324.7 kPa, w2 = 0.45	8.75837
304.25 K, 423.5 kPa, w2 = 0.45	11.6666
304.25 K, 550.2 kPa, w2 = 0.45	15.5404
304.25 K, 710 kPa, w2 = 0.45	20.7007
306.96 K, 235.2 kPa, w2 = 0.65	5.2834
306.96 K, 309.8 kPa, w2 = 0.65	7.0255
306.96 K, 406.3 kPa, w2 = 0.65	9.3418
306.96 K, 530 kPa, w2 = 0.65	12.4219
306.96 K, 1095.4 kPa, w2 = 0.55	36.0371
306.97 K, 260.5 kPa, w2 = 0.55	6.5188
306.97 K, 673.4 kPa, w2 = 0.55	20.3802
306.97 K, 686.8 kPa, w2 = 0.65	16.5173
306.97 K, 865 kPa, w2 = 0.55	27.1004
306.97 K, 880.8 kPa, w2 = 0.65	21.9632
306.98 K, 343.1 kPa, w2 = 0.55	8.6681
306.98 K, 449.3 kPa, w2 = 0.55	11.5262
306.98 K, 519.6 kPa, w2 = 0.55	15.3262
307 K, 1113.5 kPa, w2 = 0.65	29.2029
307.04 K, 1304.3 kPa, w2 = 0.6	37.3883
307.05 K, 823.4 kPa, w2 = 0.6	21.1446
307.06 K, 286.9 kPa, w2 = 0.6	6.763
307.06 K, 376.9 kPa, w2 = 0.6	8.993
307.06 K, 492.8 kPa, w2 = 0.6	11.9584
307.06 K, 640 kPa, w2 = 0.6	15.901
307.06 K, 1046.1 kPa, w2 = 0.6	28.116
308.12 K, 266.9 kPa, w2 = 0.5	6.72365
308.12 K, 346.4 kPa, w2 = 0.5	8.95632
308.12 K, 447.5 kPa, w2 = 0.5	11.9301
308.12 K, 577.6 kPa, w2 = 0.5	15.8911
308.12 K, 742.5 kPa, w2 = 0.5	21.1679
308.13 K, 944.9 kPa, w2 = 0.5	28.196
308.14 K, 1188.3 kPa, w2 = 0.5	37.5563
308.15 K, 263.5 kPa, w2 = 0.45	6.89941
308.2 K, 1234.2 kPa, w2 = 0.45	38.5343
308.21 K, 980.9 kPa, w2 = 0.45	28.9282
308.22 K, 346.6 kPa, w2 = 0.45	9.18817
308.22 K, 454.6 kPa, w2 = 0.45	12.2393
308.22 K, 592.6 kPa, w2 = 0.45	16.3032
308.22 K, 766.7 kPa, w2 = 0.45	21.7165
308.23 K, 960.1 kPa, w2 = 0.4	29.795
308.24 K, 751.6 kPa, w2 = 0.4	22.3672
308.24 K, 1208.1 kPa, w2 = 0.4	39.6876
308.25 K, 447.1 kPa, w2 = 0.4	12.6056
308.25 K, 581.8 kPa, w2 = 0.4	16.7913
308.26 K, 197.5 kPa, w2 = 0.4	5.33332
308.26 K, 260.1 kPa, w2 = 0.4	7.10429
308.26 K, 341.6 kPa, w2 = 0.4	9.46322
311.01 K, 747.3 kPa, w2 = 0.65	17.8403
311.01 K, 956.7 kPa, w2 = 0.65	23.7227
311.01 K, 1206.7 kPa, w2 = 0.65	31.545
311.02 K, 256.8 kPa, w2 = 0.65	5.8063
311.02 K, 338 kPa, w2 = 0.65	7.5979
311.02 K, 383.5 kPa, w2 = 0.55	9.3582
311.02 K, 443.1 kPa, w2 = 0.65	10.0895
311.02 K, 500.4 kPa, w2 = 0.55	12.444
311.02 K, 577.7 kPa, w2 = 0.65	13.4164
311.02 K, 837.9 kPa, w2 = 0.55	22.003
311.02 K, 1067.2 kPa, w2 = 0.55	29.258
311.02 K, 1334.9 kPa, w2 = 0.55	38.9056
311.03 K, 650.6 kPa, w2 = 0.55	16.547
311.06 K, 1343.8 kPa, w2 = 0.6	37.8297
311.07 K, 294.6 kPa, w2 = 0.6	6.8432
311.07 K, 386.9 kPa, w2 = 0.6	9.1
311.07 K, 505.8 kPa, w2 = 0.6	12.1
311.07 K, 657.2 kPa, w2 = 0.6	16.0896
311.07 K, 846.4 kPa, w2 = 0.6	21.3948
311.07 K, 1076.1 kPa, w2 = 0.6	28.4489
312.09 K, 1147.3 kPa, w2 = 0.4	36.0778
312.09 K, 1427.9 kPa, w2 = 0.4	48.057
312.1 K, 240.2 kPa, w2 = 0.4	6.45834
312.1 K, 415.1 kPa, w2 = 0.4	11.4592
312.1 K, 542.2 kPa, w2 = 0.4	15.2643
312.1 K, 703.7 kPa, w2 = 0.4	20.3326
312.1 K, 904.5 kPa, w2 = 0.4	27.0838
312.11 K, 316.2 kPa, w2 = 0.4	8.60266
312.14 K, 1384.5 kPa, w2 = 0.45	44.9611
312.16 K, 1108.9 kPa, w2 = 0.45	33.7517
